Columns and labels:
[1] = test system: C4-2 prostate cancer cells; details: AR-positive cells; 2 Gy
Experimental: (a) (Top) Cells were cultured in steroid-deprived media −/+ DHT for 24 hours and then treated with IR: mock (ϕ), 4 Gy, or 6 Gy. Cells were then supplemented with hormone-proficient media at 48 hours post-IR. […] (Bottom) Cells were cultured in hormone-proficient media for 24 hours without or with enzalutamide (ENZ) and then treated with IR; mock (ϕ) or 4 Gy. Error bars represent normalized s.e.m of at least three experiments. […] Error bars represent normalized s.e.m of at least three experiments and the Student's t-test was used for statistical analysis. *, P<0.05. […] Error bars represent s.e.m of at least three experiments and the Student's t-test was used for statistical analysis. *, P<0.05. (d) Cells were cultured in hormone-proficient (FBS) media for 24 hours −/+ ENZ and then treated with IR: mock (ϕ 3 Gy (HMC18 and MDAMB453), or 2 Gy (C4-2). Cells were cultured in steroid-deprived media for 48 hours, treated −/+ DHT for 24 hours, and then treated with IR: mock (ϕ), 3 Gy (HMC18 and MDAMB453), or 2 Gy (C4-2). γH2AX, HDAC1, and actin levels were measured at the indicated time points. Relative intensity of γH2AX was calculated by ImageJ64. (e) MDAMB453 cells were cultured in steroid-replete, steroid-deficient, or steroid-deficient with 1 nM DHT for 24 hours, then treated with irradiation. Cells were harvested and expression of γDNAPKcs was analyzed. […]

[2] = test system: MDAMB453 cells; assay: γH2AX formation and resolution kinetics (Western blot); type: cell-based, human; details: 3 Gy; effect persisted at 24 hours
[3] = test system: MCF7, BT474, CAMA1, HCC202, MDAMB453, HMC18 cells; assay: Growth survival assay after IR across several breast cancer cell lines; type: cell-based, human; details: only in cell lines that expressed AR, independent of ER and ErbB2 activity
Experimental: (a) (Top) Cells were cultured in steroid-deprived media −/+ DHT for 24 hours and then treated with IR: mock (ϕ), 4 Gy, or 6 Gy. Cells were then supplemented with hormone-proficient media at 48 hours post-IR. Cell number was determined on day 14-21. (Bottom) Cells were cultured in hormone-proficient media for 24 hours without or with enzalutamide (ENZ) and then treated with IR; mock (ϕ) or 4 Gy. Error bars represent normalized s.e.m of at least three experiments. (b) MCF7, BT474, CAMA1, HCC202, and MDAMB453 cells were treated with ENZ, ENZ+IR, DHT, or DHT+IR as in (a). HMC18 cells were treated similarly but were profiled by clonogenic survival assays. […]
(§2) Cells were plated using a Multidrop Combi liquid handler (Thermo Fisher) in at least quadruplicates for each time point at three cell densities (range 25-225 cells per well) in a white 384-well plate (Corning, N.Y.). […] Relative luminescence units were measured using an Envision multilabel plate reader (Perkin Elmer) with a measurement time of 0.1 seconds. Luminescence signal is proportional to the amount of ATP present. […] The luminescence signal was plotted as a function of cell density and a cell density within the linear range for luminescence (or growth) was selected to generate integral survival for each cell line. […]

[4] = test system: MDAMB453 cells; details: steroid-deprived media supplemented with 1 nM DHT for 24 hours
Experimental: (d) Cells were cultured in hormone-proficient (FBS) media for 24 hours −/+ ENZ and then treated with IR: mock (ϕ 3 Gy (HMC18 and MDAMB453), or 2 Gy (C4-2). Cells were cultured in steroid-deprived media for 48 hours, treated −/+ DHT for 24 hours, and then treated with IR: mock (ϕ), 3 Gy (HMC18 and MDAMB453), or 2 Gy (C4-2). γH2AX, HDAC1, and actin levels were measured at the indicated time points. Relative intensity of γH2AX was calculated by ImageJ64. (e) MDAMB453 cells were cultured in steroid-replete, steroid-deficient, or steroid-deficient with 1 nM DHT for 24 hours, then treated with irradiation. Cells were harvested and expression of γDNAPKcs was analyzed.
Whole cell lysates were prepared using M-PER lysis buffer and clarified by centrifugation. Proteins were separated by SDS-PAGE and transferred onto 0.45 μM nitrocellulose membranes (Maine Manufacturing; Sanford, Me.). After primary antibody incubation for 1-2 hours at room temperature, washings, and incubation with secondary antibodies, blots were developed with a chemoluminescence system (Amersham/GE Healthcare). For γH2AX measurements, proteins were transferred onto 0.2 μM nitrocellulose (Bio-Rad).
The phosphorylation of DNAPKcs on Ser2056 was examined, which is indicative of activated DNAPKcs, in MDAMB453 cells.

[5] = test system: MDAMB453 cells; assay: Neutral comet assay; type: cell-based, human; details: pretreated 24 hours prior to 15 Gy of irradiation; ENZ 20 μM
Experimental: (§1) Single-cell gel electrophoresis was conducted in alkaline or neutral buffer according to the manufacturer's instructions, Trevigen (Gaithersburg, Md.). Slides were blinded and enumerated by a single user.

[6] = test system: MDAMB453 cells; assay: Growth survival assay after IR with DHT or ENZ pretreatment; type: cell-based, human
Experimental: (a) (Top) Cells were cultured in steroid-deprived media −/+ DHT for 24 hours and then treated with IR: mock (ϕ), 4 Gy, or 6 Gy. Cells were then supplemented with hormone-proficient media at 48 hours post-IR. Cell number was determined on day 14-21. (Bottom) Cells were cultured in hormone-proficient media for 24 hours without or with enzalutamide (ENZ) and then treated with IR; mock (ϕ) or 4 Gy. Error bars represent normalized s.e.m of at least three experiments. (b) MCF7, BT474, CAMA1, HCC202, and MDAMB453 cells were treated with ENZ, ENZ+IR, DHT, or DHT+IR as in (a). […] Error bars represent normalized s.e.m of at least three experiments and the Student's t-test was used for statistical analysis. *, P<0.05. […]
as §2

[7] = test system: MDAMB453 orthotopic xenografts; assay: MDAMB453 orthotopic xenograft study
Experimental: (g) MDAMB453 cells were orthotopically injected into the mammary gland of NSG mice and block randomized into one of four treatment arms as shown. Tumor volume was measured daily. Error bars represent normalized s.e.m of at least seven mice in each treatment arm. *, P<0.05 compared with all other treatment conditions based on ANOVA and Tukey Contrasts. **, P<0.05 for interaction based on two-way ANOVA. […] This cohort received ENZ at 25 mg kg^−1. (i) Average weight for each arm in both cohorts was measured weekly. Data are expressed as the means±s.e. of at least seven mice in each treatment arm.
Female NSG mice, 6-8 weeks of age, were obtained from the Cleveland Clinic Biological Resources Unit facility. All mouse studies were conducted under a protocol approved by the Cleveland Clinic Institutional Animal Care and Use Committee MDAMB453 cells were resuspended in serum free media and injected into the inguinal mammary gland. Once tumors reached 200 mm^3, mice were block randomized and assigned to vehicle, enzalutamide, vehicle plus radiotherapy, or enzalutamide plus radiotherapy. Two cohorts consisting of these four arms underwent treatment. Vehicle consisted of a volume of 5 mL per kg of PEG-400 solution containing 1.5%/0 of DMSO for cohort 1 and 2.5% DMSO for cohort 2 via oral gavage daily. Cohort 1 received enzalutamide at 15 mg kg^−1 and cohort 2 received enzaluatmide at 25 mg kg^−1. Radiotherapy was delivered to a dose of 1.5 Gy in three fractions once tumor size reached 250 mm^3. Treatment was not blinded to the investigator. Tumor volume was measured daily. Mice were sacrificed once their tumors reached an approximate size of 1,000 mm^3 or at treatment days 21-28. The significance of the difference between treatment groups was assessed by one-way and the interaction between drug and radiation was measured by two-way ANOVA.

[8] = test system: BT474 cells; assay: Neutral comet assay; type: cell-based, human; details: irradiated (10 Gy) after 24 hours of treatment with ENZ (20 μM)
Experimental: FIG. 16: AR regulates DNA damage and repair in AR, ER positive cells.
as §1

[9] = test system: HMC18 cells; assay: γH2AX formation and resolution kinetics (Western blot); type: cell-based, human; details: AR-negative cells; 3 Gy

| Structure (SMILES) | γH2AX resolution [1] | Levels of γH2AX after irradiation [2] | Protection or sensitization to radiation [3] | γDNAPKcs levels following irradiation [4] | DNA damage (double-strand breaks) [5] | Cell growth after radiation ([6]; DHT re-supplementation in steroid-deprived media before radiation, IR 4 or 6 Gy) | Tumor growth, ENZ alone ([7]; 15 mg kg^−1, used alone) | Tumor suppression, interaction with radiotherapy ([7]; 15 mg kg^−1 plus radiotherapy) | Tumor growth, ENZ ([7]; 25 mg kg^−1) | Body weight loss during the course of treatment ([7]; ENZ 25 mg kg^−1 and radiation) | Tumor growth, combination with ionizing radiation ([7]; ENZ at 15 mg kg^−1 or 25 mg kg^−1 plus ionizing radiation) | Double-strand breaks [8] | Kinetics of γH2AX formation and resolution [9] | Cell number after radiation ([6]; hormone-proficient media, ENZ 24 hours before IR 4 Gy, compared to vehicle) |
| --- | --- | --- | --- | --- | --- | --- | --- | --- | --- | --- | --- | --- | --- | --- |
| C[C@]12CCC(=O)C[C@@H]1CC[C@@H]1[C@@H]2CC[C@]2(C)[C@@H](O)CC[C@@H]12 [DHT, Dihydrotestosterone] | hastened γH2AX resolution | decreased | protection | maintained γDNAPKcs at similar levels to those cells grown in the steroid-replete media | decreased | dose dependent rescue of cell growth | – | – | – | – | – | – | – | – |
| CNC(=O)c1ccc(N2C(=S)N(c3ccc(C#N)c(C(F)(F)F)c3)C(=O)C2(C)C)cc1F [ENZ, enzalutamide] | – | increased shortly after irradiation | sensitization | – | increased DNA damage | – | no effects on tumor growth | interactive tumor suppression with radiotherapy | Suppression of tumor growth | ~10% | more effective suppression of tumor growth than either modality alone | increased double-strand breaks | unaffected | decreased cell number compared to vehicle alone |

Reference: US10391173B2, “Anti-ar agent and radiation therapy for androgen receptor positive cancer” (The Cleveland Clinic Foundation, priority 2016, dated 2019)
